Like-named read-outs stand apart in the source and are kept apart here. Starred links: 1 amine or outer side, 2 acyl side, 3 side chain; linkers in the order of their positions; H or OH if unused. Positions of bridges follow the written chain, without caps; N, C: chain ends. Non-standard residues stand in square brackets, D forms with d. Residues, ends and D or L forms follow the SMILES beside them. ξ: configuration not given here. X1 = CCCCCCCCCCCC(OC1OCC(O)C(O)C1O)C(O)C(O)CC(CC(=O)[*:1])N[*:2]; ξTyr(βOH) = NC(C(=O)O)C(O)c1ccc(O)cc1; ξAsn(3ξ-OH) = NC(=O)C(O)C(N)C(=O)O; Dab = NCC[CH](N)C(=O)O

Here are results for 3 compounds from patent publication US10265374B2, “Occidiofungin formations and uses thereof” (MISSISSIPPI STATE UNIVERSITY, priority 2014, dated 2019).

Data set [1] is described as follows: In vitro toxicity screening (CellTiter-Blue cell viability, 48 hours). It is filed as cell-based, human. As to conditions: human. An excerpt: Cancer cell lines, OVCAR8 (Center for Cancer Research (OVAR.8; Sample ID 25)), SW1088 (ATCC-HTB-12), and Toledo (ATCC CRL-2631), and normal human neonatal dermal fibroblasts cell line (ATCC-PCS-201-010) were passaged and prepped as previously described (See References 15-17). OVCAR8, SW1088, and Toledo2631 are ovarian, brain, and B-cell lymphoma cancer cell lines, respectively. This panel of cell lines was chosen based, in part, on their being from very different cancer types in order to discern whether occidiofungin would have a broad spectrum activity towards cancer cell lines of vastly different parental organ/cell types. OVCAR8 cells are widely used in the field of cancer therapeutic research as a panel representative of ovarian cancer in screening experiments for identifying both ovarian-specific and non-specific (i.e., anti-neoplastic activity on multiple cancer cell types) therapeutic agents (See References 28-30). Similarly, SW1088 cells are widely used in the field of cancer therapeutic research as a panel representative of glioma (the most common brain cancer) in screening experiments for identifying both glioma-specific and non-specific therapeutic agents (See References 31-32). Toledo 2631 cells are derived from lymphoma cells, and are used in the field of cancer therapeutic research for identifying lymphoma-specific and non-specific therapeutic agents (See, e.g., Reference 33). […] Cell counts per plate were calculated to be approximately 50,000 cells/mL. A 10× stock solution of occidiofungin was prepared at 65 μM concentration in 10% dimethyl sulfoxide (DMSO). Two-fold serial dilutions on a 96 well plate were set up in triplicate with starting concentration of 6.5 μM and a final concentration of 3 nM. Bortezomib was used as a comparator for toxicity against human fibroblast and was serially diluted two-fold starting at a concentration of 5 μM and ending at 2.5 nM. Bortezomib is used clinically against myeloma and lymphoma cancers in patients refractory against other chemotherapeutics (See References 18, 19). Furthermore, bortezomib has shown efficacy against a variety of solid tumors and cancer cell lines, making this an appropriate comparison molecule in the panel of cell lines chosen (See References 34-35). The plates were then incubated at 37° C. in 5% CO2 for 48 hours. After 48 hours, cell viability was monitored using CellTiter-Blue (Promega) cell viability assay by measuring the fluorescence emission of a redox activated dye (579EX/584EM) using a POLARstar Omega microplate reader (BMG Labtech).
(In general: The colour change of resazurin is a common sign of viable cells or microbes.)

In data set [2] the test system is normal cells with lower metobolism. The note with it: cited from earlier work.
Data set [3] in a line: Pharmacokinetics of occidiofungin in DOPC or DOPC:DPPG vesicles. It is filed as in vivo, mice. As to conditions: for half-life: female, BALB/c. The protocol: Entrapment of occidiofungin in vesicles was done using 1,2-Dioleoyl-sn-glycero-3-phosphocholine (DOPC) and 1,2-dipalmitoyl-sn-glycero-3-[phospho-rac-(3-lysyl(1-glycerol))] (DPPG) from Avanti polar lipids. Lipid cake formation and subsequent hydration was done according to the manufacturer's recommendation. Briefly, 20 mg/ml of DOPC in chloroform was placed in a glass beaker and dried by vacuum evaporation to remove the organic solvent. The lipid film formed was hydrated using a 1 μg/μl solution of occidiofungin in 1.5% (2-Hydroxypropyl)-β-cyclodextrin (Alfa Aesar), while maintaining the lipid concentration at 20 mg/ml and the solution was sonicated to form the vesicles. Similarly, DPPG was mixed with DOPC at a ratio of 9:1 (DOPC:DPPG) to make a homogenous lipid mixture at a concentration of 20 mg/ml and the same process of drying and hydration was repeated to make vesicles. Following vesicle formation, estimation of the amount of occidiofungin trapped inside each type of vesicle was done. The mixture containing free and vesicle trapped occidiofungin was passed through a gel filtration column containing Sephadex G-10 beads. The void volume (containing only the vesicle trapped occidiofungin) was collected and occidiofungin extracted using methanol (50% final concentration). Liquid chromatography was done on the extracted sample, and a standard and the concentration of occidiofungin in the extracted sample was estimated by a comparison of peak volumes.
Occidiofungin in DOPC and DOPC-DPPG, at a concentration of 2.5 mg/kg, with ˜1.25 mg/kg entrapped in vesicles, was administered to six female BALB/c mice respectively via intravenous administration. […] The mice were weighed prior to the start of the experiment and every 24 hours post injection (hpi).
Blood was drawn at time points 1 hpi, 3 hpi, 5 hpi, 7 hpi, 9 hpi, 12 hpi, 18 hpi, 24 hpi and 48 hpi. 15 μl of blood was drawn from the lateral saphenous vein of each mouse for the first three time points. Blood from three mice were pooled together and added to 5 μl of 6.4% citric acid to prevent coagulation. From the fourth time point, blood was drawn from the tail vein of the mice. Blood samples were spun down at 13000 rpm for 10 minutes to separate the plasma. The plasma and the blood pellet obtained were stored separately at −20° C. until analysis. The plasma samples were thawed and the occidiofungin was extracted using a final concentration of 50% methanol. The protein precipitate was spun down at 13000 rpm for 10 minutes and the supernatant was used for analysis. Liquid chromatography was done using Acclaim 120 C18 columns (Length: 150 mm; I.D: 2.1 mm; 5 μm) to purify the occidiofungin in the sample. The occidiofungin was then subjected to MS/MS. Fragmentation of the occidiofungin (parent mass 1200 and 1216 Da) was carried out and the fragment of 1068 and 1084 Da m/z, which corresponds to the occidiofungin molecule (A and B forms, respectively) without the xylose sugar, was used for quantification of occidiofungin. A calibration curve constructed using standard concentrations of occidiofungin in plasma was used to analyze the samples obtained from the mice for pharmacokinetics (See FIGS. 6A-6B & 7A-7B).

As for `CC(C)C[C@H](NC(=O)[C@H](Cc1ccccc1)NC(=O)c1cnccn1)B(O)O` [Bortezomib, bortezomib, reference compound], the cytotoxic concentration (CC50) at 48 h in data set [1] came out at 4.09 µM. The “toxicity in normal cells” value in data set [2] was “micromolar range”.

With `CCCCCCCCCCCC(OC1OCC(O)C(O)C1O)C(O)C(O)CC1CC(=O)NC(CO)C(=O)NC(C(O)c2ccc(O)cc2)C(=O)NC(CCN)C(=O)NCC(=O)NC(CC(N)=O)C(=O)NC(CO)C(=O)NC(C(O)C(N)=O)C(=O)N1` (stereo not drawn) [OCFIN-B] (S[ξTyr(βOH)][Dab]GNS[ξAsn(3ξ-OH)]; linker N-C via X1; configuration not given here), the half-life in data set [3] (mouse, in vivo, iv, packaged in DOPC:DPPG (90:10) vesicles, 2.5 mg/kg i.v., mice, read-out: t½ (converted)) was 14.8 h. The ke1 in data set [3] (packaged in DOPC:DPPG (90:10) vesicles, 2.5 mg/kg i.v., mice) is 0.0467 h⁻¹.

`CCCCCCCCCCCC(OC1OCC(O)C(O)C1O)C(O)C(O)CC1CC(=O)NC(CO)C(=O)NC(C(O)c2ccc(O)cc2)C(=O)NC(CCN)C(=O)NCC(=O)NC(CC(N)=O)C(=O)NC(CO)C(=O)NC(CC(N)=O)C(=O)N1` (stereo not drawn) [OCFIN-A] (S[ξTyr(βOH)][Dab]GNSN; linker N-C via X1; configuration not given here): in data set [3] (mouse, in vivo, iv, 2.5 mg/kg), the half-life was 14.6 h and the ke1 was determined as 0.0474 h⁻¹.

As usually defined, the CC50 is the concentration giving 50% cytotoxicity. A higher CC50 goes with lower toxicity to the cells.
